According to ChEMBL document CHEMBL1201862, “PubChem BioAssay data set” (2004):
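Five compound concentrations were applied to cells in 96-well plates for 48 hours; endpoints were derived by simple linear interpolation of the resulting dose-response curve. GI50 is the concentration that inhibits growth by half.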 Activity calls are given as the source filed them. Rule as the data show it: active = GI50 up to about 1.1 µM and inactive = higher.

Assays:
Assay in all cases: NCI tumour cell line growth inhibition, 48 h
[1] = system: SN12C
[2] = system: SK-OV-3
[3] = system: SW-620
[4] = system: SNB-75
[5] = system: EKVX
[6] = system: OVCAR-8
[7] = system: MOLT-4
[8] = system: RXF 393
[9] = system: IGROV-1
[10] = system: HOP-62
[11] = system: COLO 205
[12] = system: 786-0
[13] = system: LOX IMVI
[14] = system: ACHN
[15] = system: NCI-H460
[16] = system: UACC-257
[17] = system: UO-31

Measured: GI50

N/C(=N\O)N/N=C\c1c2ccccc2c(Cl)c2ccccc12
inactive: [1] 6.79 µM | [2] 2.57 µM | [3] 5.22 µM | [4] 12.7 µM | [5] 3.03 µM | [6] 4.08 µM | [7] 4.18 µM | [8] 1.22 µM | [9] 3.38 µM | [10] 10.5 µM | [11] 3.67 µM | [12] 12.6 µM | [13] 2.55 µM | [14] 4.33 µM | [15] 2.23 µM | [16] 1.42 µM | [17] 10.7 µM

O=C1O/C(=C(/c2ccc(Cl)cc2)c2nc3ccccc3[nH]2)C(O)=C1c1ccc(Cl)cc1
inactive: [1] 2.72 µM | [2] 2.86 µM | [3] 3.48 µM | [4] 2.69 µM | [5] 1.46 µM | [6] 2.82 µM | [7] 1.95 µM | [8] 2.26 µM | [9] 5.3 µM | [10] 1.8 µM | [11] 1.59 µM | [12] 3.36 µM | [13] 2.44 µM | [14] 2.51 µM | [15] 2.73 µM | [16] 2.03 µM | [17] 2.9 µM

CCOC(=O)Nc1ccc(S(=O)(=O)I)cc1.CCOC(=O)Nc1ccc(S(=O)(=O)I)cc1.CNC(=O)N=O.NC(=O)OCCCl
inactive: [1] > 100 µM | [2] > 100 µM | [3] 61.8 µM | [4] 21.9 µM | [6] > 100 µM | [7] > 100 µM | [9] > 100 µM | [10] 46.7 µM | [11] > 100 µM | [12] > 100 µM | [13] > 100 µM | [14] > 100 µM | [15] > 100 µM | [16] 74.6 µM | [17] > 100 µM

CC(=O)NN1C(=O)C(Cc2ccccc2)c2ccccc21 (stereo unspecified)
inactive: [1] > 100 µM | [2] > 100 µM | [3] > 100 µM | [4] > 100 µM | [5] > 100 µM | [6] > 100 µM | [7] > 100 µM | [9] > 100 µM | [10] > 100 µM | [11] > 100 µM | [12] > 100 µM | [13] > 100 µM | [14] > 100 µM | [15] > 100 µM | [16] > 100 µM | [17] > 100 µM

COC(=O)C1=C(SC)SC2(C(=O)OC)C3C=C(C)C4C(N13)C42C(=O)OC (stereo unspecified)
inactive: [1] > 100 µM | [2] > 100 µM | [3] > 100 µM | [4] > 100 µM | [5] > 100 µM | [6] > 100 µM | [7] > 100 µM | [8] > 100 µM | [9] > 100 µM | [10] > 100 µM | [11] > 100 µM | [12] > 100 µM | [13] > 100 µM | [14] > 100 µM | [15] > 100 µM | [16] > 100 µM | [17] > 100 µM

COc1ccc(C(=O)O/N=C2/CCC/C2=C\c2ccccc2)cc1
inactive: [1] > 100 µM | [2] > 100 µM | [3] > 100 µM | [4] > 43.3 µM | [5] > 100 µM | [6] > 100 µM | [7] > 100 µM | [8] > 83 µM | [9] > 73.6 µM | [10] > 100 µM | [11] > 100 µM | [12] > 72.3 µM | [13] > 100 µM | [14] > 94.8 µM | [15] > 100 µM | [16] > 100 µM | [17] > 100 µM

C=CCNC(=O)ON1C(=O)CCC1=O
inactive: [1] > 100 µM | [2] > 100 µM | [3] > 100 µM | [4] > 100 µM | [5] > 100 µM | [6] > 100 µM | [7] > 100 µM | [8] > 100 µM | [9] > 100 µM | [10] > 100 µM | [11] > 100 µM | [12] > 100 µM | [13] > 100 µM | [14] > 100 µM | [15] > 100 µM | [16] > 100 µM | [17] > 100 µM

C/C(CC(=O)NCCc1ccccc1)=N\NS(=O)(=O)c1ccc(C)cc1
inactive: [2] > 100 µM | [3] > 100 µM | [4] > 100 µM | [5] > 100 µM | [6] > 100 µM | [7] > 100 µM | [8] > 100 µM | [9] > 100 µM | [10] > 100 µM | [11] > 100 µM | [12] > 100 µM | [13] > 100 µM | [14] > 100 µM | [15] > 100 µM | [16] > 100 µM | [17] > 100 µM

ClC1=C(Cl)C(Cl)(Cl)c2c3c(c4c(c21)C(Cl)(Cl)C(Cl)=C4Cl)C(Cl)(Cl)C(Cl)=C3Cl
inactive: [1] > 100 µM | [2] > 100 µM | [3] > 100 µM | [5] > 100 µM | [6] > 100 µM | [7] > 100 µM | [9] > 100 µM | [10] > 100 µM | [11] > 100 µM | [12] > 100 µM | [13] > 100 µM | [14] > 100 µM | [15] > 100 µM | [16] > 100 µM

C/C(C=O)=C1\C(O)C[C@]1(C)C1CC(C)(C)CC1O (stereo partly specified)
inactive: [1] > 100 µM | [3] > 100 µM | [5] > 100 µM | [6] > 100 µM | [7] 35.7 µM | [8] > 100 µM | [10] > 100 µM | [11] > 100 µM | [12] > 100 µM | [13] > 100 µM | [14] > 100 µM | [15] > 100 µM | [16] > 100 µM | [17] > 100 µM

CN(C)c1ccc(N=O)c(O)c1.CN(C)c1ccc(N=O)c(O)c1.[SiH4]
inactive: [1] 12 µM | [2] 20.7 µM | [3] 10.2 µM | [4] 12.7 µM | [5] 15.3 µM | [6] 12.9 µM | [7] 11.5 µM | [9] 20.9 µM | [10] 23 µM | [11] 2.96 µM | [12] 20.8 µM | [13] 5.92 µM | [14] 2.67 µM | [16] 14 µM | [17] 16.3 µM

CCSc1nc(-c2ccc(OC)cc2)c(C#N)c(=O)n1C1OCC(OC(C)=O)C(OC(C)=O)C1OC(C)=O (stereo unspecified)
inactive: [1] > 100 µM | [2] > 100 µM | [3] > 100 µM | [4] 65.6 µM | [5] > 100 µM | [7] 43.5 µM | [8] > 100 µM | [9] 77.8 µM | [10] > 100 µM | [11] > 100 µM | [12] > 100 µM | [14] > 100 µM | [15] > 100 µM | [16] > 100 µM | [17] > 100 µM

OCCCc1cnco1
inactive: [1] > 100 µM | [2] > 100 µM | [3] > 100 µM | [4] > 100 µM | [5] > 100 µM | [6] > 100 µM | [7] > 100 µM | [8] > 100 µM | [9] > 100 µM | [10] > 100 µM | [11] > 100 µM | [12] > 100 µM | [13] > 100 µM | [14] > 100 µM | [15] > 100 µM | [16] > 100 µM | [17] > 100 µM

O=C(/C=C/c1ccccc1F)C(c1ccccc1)c1ccccc1
inactive: [1] 4 µM | [2] 2.01 µM | [3] 3.83 µM | [4] 4.76 µM | [5] 11.2 µM | [7] 1.24 µM | [9] 10.8 µM | [12] 2.42 µM | [13] 1.71 µM | [14] 2.56 µM | [16] 4.82 µM | [17] 12.3 µM

O=C1CCCCC1CN1CCCC1 (stereo unspecified)
inactive: [1] > 100 µM | [2] > 100 µM | [3] > 100 µM | [4] > 100 µM | [5] > 100 µM | [6] > 100 µM | [7] > 100 µM | [9] > 100 µM | [10] > 100 µM | [11] > 100 µM | [12] > 100 µM | [13] > 100 µM | [14] > 100 µM | [15] > 100 µM | [16] > 100 µM

Nc1ccc(C(=O)NN2C(=O)C(Cl)C2c2ccccc2)cc1 (stereo unspecified)
inactive: [1] > 100 µM | [2] > 100 µM | [3] > 100 µM | [4] > 100 µM | [5] > 100 µM | [6] > 100 µM | [7] > 100 µM | [9] > 100 µM | [10] > 100 µM | [11] > 100 µM | [12] > 100 µM | [13] > 100 µM | [14] > 100 µM | [15] > 100 µM | [16] > 100 µM | [17] > 100 µM

Cc1ccc(Sc2cc([N+](=O)[O-])cc(Sc3ccc(C)cc3)c2Sc2ccc(C)cc2)cc1
inactive: [1] > 100 µM | [3] > 100 µM | [4] 53.5 µM | [5] > 100 µM | [6] 74.6 µM | [7] 34.1 µM | [8] 36 µM | [9] > 100 µM | [10] > 100 µM | [11] > 100 µM | [12] 51.6 µM | [13] > 100 µM | [14] > 100 µM | [15] > 100 µM | [16] > 100 µM | [17] > 100 µM
